Experimental data from publication PMC4930285 (Biomolecules & Therapeutics, 2016).

Experiments:
[1] = molecular target: T1, α7 nicotinic acetylcholine receptor (α7 nAChR) (Homo sapiens, UniProt P36544); assay: two-electrode voltage clamp in Xenopus oocytes; type: cell-based
[2] = molecular target: T1, α7 nicotinic acetylcholine receptor (α7 nAChR); assay: two-electrode voltage clamp in Xenopus oocytes; type: cell-based; remark: listed apart in the source

T1 sequence (P36544 23-502): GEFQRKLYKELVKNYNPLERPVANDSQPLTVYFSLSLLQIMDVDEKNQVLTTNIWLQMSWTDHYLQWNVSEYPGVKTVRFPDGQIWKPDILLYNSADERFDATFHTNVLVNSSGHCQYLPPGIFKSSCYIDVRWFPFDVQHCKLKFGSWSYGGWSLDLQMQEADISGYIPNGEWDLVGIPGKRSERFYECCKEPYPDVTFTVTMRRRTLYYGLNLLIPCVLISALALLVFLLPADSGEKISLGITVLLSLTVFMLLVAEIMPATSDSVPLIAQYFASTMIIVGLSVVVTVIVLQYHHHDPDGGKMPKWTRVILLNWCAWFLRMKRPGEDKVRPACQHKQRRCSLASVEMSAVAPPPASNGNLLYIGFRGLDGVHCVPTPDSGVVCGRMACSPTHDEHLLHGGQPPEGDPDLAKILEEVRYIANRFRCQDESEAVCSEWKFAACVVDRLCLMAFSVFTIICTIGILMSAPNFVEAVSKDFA

| IC50 [2] | Structure (SMILES) | EC50 [1] |
| --- | --- | --- |
|  | O=c1c(O)c(-c2ccc(O)c(O)c2)oc2cc(O)cc(O)c12 [Que, quercetin] | 35.1 ± 3.8 µM |
| 70.4 ± 3.6 µM | C[C@@H]1O[C@@H](OC[C@H]2O[C@@H](Oc3c(-c4ccc(O)c(O)c4)oc4cc(O)cc(O)c4c3=O)[C@H](O)[C@@H](O)[C@@H]2O)[C@H](O)[C@H](O)[C@H]1O [Rutin, quercetin-3-O-rutinoside] |  |
